Our source for the EC50 values is patent US12497408B2, “Tetracyclic compounds and methods for the treatment of Zika virus infection” (priority 2021, dated 2025).

The experiment relates to ZIKV. In words: ZIKV reporter virus-based antiviral screening on Huh7 cells. The format is cell-based, Zika virus. Conditions: Huh7 cells infected with recombinant luciferase reporter ZIKV (MOI about 0.1), luciferase signal. The procedure, abridged: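 Huh7 cells in 2% FBS assay medium infected at MOI about 0.1 with Renilla or Nano luciferase ZIKV premixed with nine-point compound dilutions, 48 hrs at 37° C. Luciferase signal normalized to DMSO controls as 100%; viability optionally by CellTiter-Glo with Rlu virus.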

The structures appear in SMILES notation. pEC50: −log10 of the molar value.

For the compound `COC(=O)N[C@H](C(=O)N1CC(F)(F)C[C@H]1c1nc(Cl)c(-c2cc3c4c(c2)OCc2cc(-c5[nH]c([C@@H]6CC(F)(F)CN6C(=O)[C@@H](NC(=O)OC)C(C)(C)C(F)(F)F)nc5Cl)cc(c2-4)OC3)[nH]1)C(C)(C)C(F)(F)F` [Compound 58, dimethyl ((2S,2′S)-((5S,5′S)-((5,10-dihydrochromeno[5,4,3-cde]chromene-2,7-diyl)bis(4-chloro-1H-imidazole-5,2-diyl))bis(3,3-difluoropyrrolidine-5,1-diyl))bis(4,4,4-trifluoro-3,3-dimethyl-1-oxobutane-1,2-diyl))dicarbamate], the pEC50 (Zika virus, Huh-7, 48 h) was 7.96. In the case of `COC(=O)N[C@H](C(=O)N1C[C@H](C)C[C@H]1c1nc(Cl)c(-c2cc3c4c(c2)OCc2cc(-c5[nH]c([C@@H]6C[C@@H](C)CN6C(=O)[C@@H](NC(=O)OC)C(C)C)nc5Cl)cc(c2-4)OC3)[nH]1)C(C)C` [Compound 1, dimethyl ((2S,2′S)-((3R,3′R,5S,5′S)-((5,10-dihydrochromeno[5,4,3-cde]chromene-2,7-diyl)bis(4-chloro-1H-imidazole-5,2-diyl))bis(3-methylpyrrolidine-5,1-diyl))bis(3-methyl-1-oxobutane-1,2-diyl))dicarbamate], the pEC50 (Zika virus, Huh-7, 48 h) is 8.38.

As for `COC(=O)N[C@H](C(=O)N1[C@@H](C)CC[C@H]1c1nc(Cl)c(-c2cc3c4c(c2)OCc2cc(-c5[nH]c([C@@H]6CC[C@H](C)N6C(=O)[C@@H](NC(=O)OC)C(C)(C)C)nc5Cl)cc(c2-4)OC3)[nH]1)C(C)(C)C` [Compound 31, dimethyl ((2S,2′S)-((2S,2′S,5S,5′S)-((5,10-dihydrochromeno[5,4,3-cde]chromene-2,7-diyl)bis(4-chloro-1H-imidazole-5,2-diyl))bis(2-methylpyrrolidine-5,1-diyl))bis(3,3-dimethyl-1-oxobutane-1,2-diyl))dicarbamate], where the note is “Zika virus, Huh-7, 48 h”, the pEC50 is 8.96. Consider `COC(=O)N[C@H](C(=O)N1C[C@@H](F)C[C@H]1c1nc(Cl)c(-c2cc3c4c(c2)OCc2cc(-c5[nH]c([C@@H]6C[C@H](F)CN6C(=O)[C@@H](NC(=O)OC)C(C)C)nc5Cl)cc(c2-4)OC3)[nH]1)C(C)C` [Compound 50, dimethyl ((2S,2′S)-((3S,3′S,5S,5′S)-((5,10-dihydrochromeno[5,4,3-cde]chromene-2,7-diyl)bis(4-chloro-1H-imidazole-5,2-diyl))bis(3-fluoropyrrolidine-5,1-diyl))bis(3-methyl-1-oxobutane-1,2-diyl))dicarbamate], for which the pEC50 (Zika virus, Huh-7, 48 h) is 6.62. Take `CC[C@H](C)[C@H](NC(=O)OC)C(=O)N1C[C@@H](C)C[C@H]1c1ncc(-c2cc3c4c(c2)OCc2cc(-c5[nH]c([C@@H]6C[C@H](C)CN6C(=O)[C@@H](NC(=O)OC)[C@@H](C)CC)nc5Cl)cc(c2-4)OC3)[nH]1` [Compound 67, methyl ((2S,3S)-1-((2S,4S)-2-(4-chloro-5-(7-(2-((2S,4S)-1-((methoxycarbonyl)-L-isoleucyl)-4-methylpyrrolidin-2-yl)-1H-imidazol-5-yl)-5,10-dihydrochromeno[5,4,3-cde]chromen-2-yl)-1H-imidazol-2-yl)-4-methylpyrrolidin-1-yl)-3-methyl-1-oxopentan-2-yl)carbamate]: the pEC50 (Zika virus, Huh-7, 48 h) was 7.62. The same measure, in the same setting: the figure for `CC[C@H](C)[C@H](NC(=O)OC)C(=O)N1C[C@H](F)C[C@H]1c1nc(Cl)c(-c2cc3c4c(c2)OCc2cc(-c5[nH]c([C@@H]6C[C@@H](F)CN6C(=O)[C@@H](NC(=O)OC)[C@@H](C)CC)nc5Cl)cc(c2-4)OC3)[nH]1` [Compound 54, dimethyl ((2S,2′S,3S,3′S)-((3R,3′R,5S,5′S)-((5,10-dihydrochromeno[5,4,3-cde]chromene-2,7-diyl)bis(4-chloro-1H-imidazole-5,2-diyl))bis(3-fluoropyrrolidine-5,1-diyl))bis(3-methyl-1-oxopentane-1,2-diyl))dicarbamate] is 8.10. On to `COC(=O)N[C@H](C(=O)N1CCC[C@H]1c1nc(Cl)c(-c2cc3c4c(c2)OCc2cc(-c5[nH]c([C@@H]6CCCN6C(=O)[C@@H](NC(=O)OC)C(C)(C)C(F)(F)F)nc5Cl)cc(c2-4)OC3)[nH]1)C(C)(C)C(F)(F)F` [Compound 27, dimethyl ((2S,2′S)-((2S,2′S)-((5,10-dihydrochromeno[5,4,3-cde]chromene-2,7-diyl)bis(4-chloro-1H-imidazole-5,2-diyl))bis(pyrrolidine-2,1-diyl))bis(4,4,4-trifluoro-3,3-dimethyl-1-oxobutane-1,2-diyl))dicarbamate], for which the negative logarithm of the EC50 (pEC50) (Zika virus, Huh-7, 48 h) was 8.59. Regarding `COC(=O)N[C@H](C(=O)N1[C@@H](C)CC[C@H]1c1nc(Cl)c(-c2cc3c4c(c2)OCc2cc(-c5[nH]c([C@@H]6CC[C@H](C)N6C(=O)[C@@H](NC(=O)OC)C(C)C)nc5Cl)cc(c2-4)OC3)[nH]1)C(C)C` [Compound 74, dimethyl ((2S,2′S)-((2S,2′S, 5S,5′S)-((5,10-dihydrochromeno[5,4,3-cde]chromene-2,7-diyl)bis(4-chloro-1H-imidazole-5,2-diyl))bis(2-methylpyrrolidine-5,1-diyl))bis(3-methyl-1-oxobutane-1,2-diyl))dicarbamate], where the note is “Zika virus, Huh-7, 48 h”, the pEC50 was 8.70. With `COC(=O)N[C@H](C(=O)N1CCC[C@@]1(C)c1nc(Cl)c(-c2cc3c4c(c2)OCc2cc(-c5[nH]c([C@]6(C)CCCN6C(=O)[C@@H](NC(=O)OC)C(C)C)nc5Cl)cc(c2-4)OC3)[nH]1)C(C)C` [Compound 64, dimethyl ((2S,2′S)-((2S,2′S)-((5,10-dihydrochromeno[5,4,3-cde]chromene-2,7-diyl)bis(4-chloro-1H-imidazole-5,2-diyl))bis(2-methylpyrrolidine-2,1-diyl))bis(3-methyl-1-oxobutane-1,2-diyl))dicarbamate], the pEC50 (Zika virus, Huh-7, 48 h) was 6.63.

Take `COC(=O)N[C@H](C(=O)N1CC2(CC2)C[C@H]1c1nc(Cl)c(-c2cc3c4c(c2)OCc2cc(-c5[nH]c([C@@H]6CC7(CC7)CN6C(=O)[C@@H](NC(=O)OC)C(C)(C)C(F)(F)F)nc5C(C)C)cc(c2-4)OC3)[nH]1)C(C)(C)C(F)(F)F` [Compound 85, methyl ((S)-1-((S)-6-(5-(7-(4-chloro-2-((S)-5-((S)-4,4,4-trifluoro-2-((methoxycarbonyl)amino)-3,3-dimethylbutanoyl)-5-azaspiro[2.4]heptan-6-yl)-1H-imidazol-5-yl)-5,10-dihydrochromeno[5,4,3-cde]chromen-2-yl)-4-isopropyl-1H-imidazol-2-yl)-5-azaspiro[2.4]heptan-5-yl)-4,4,4-trifluoro-3,3-dimethyl-1-oxobutan-2-yl)carbamate]: the pEC50 (Zika virus, Huh-7, 48 h) was 8.85. As for `COC(=O)N[C@H](C(=O)N1[C@H](c2nc(Cl)c(-c3cc4c5c(c3)OCc3cc(-c6[nH]c([C@@H]7C[C@@H]8C[C@@H]8N7C(=O)[C@@H](NC(=O)OC)C(C)C)nc6Cl)cc(c3-5)OC4)[nH]2)C[C@@H]2C[C@@H]21)C(C)C` [Compound 11, dimethyl ((2S,2′S)-((1S,1′S,3S,3′S,5S,5′S)-((5,10-dihydrochromeno[5,4,3-cde]chromene-2,7-diyl)bis(4-chloro-1H-imidazole-5,2-diyl))bis(2-azabicyclo[3.1.0]hexane-3,2-diyl))bis(3-methyl-1-oxobutane-1,2-diyl))dicarbamate], the pEC50 (48 hrs) was 8.03.

Turning to `CC[C@H](C)[C@H](NC(=O)OC)C(=O)N1CCC[C@H]1c1nc(Br)c(-c2cc3c4c(c2)OCc2cc(-c5[nH]c([C@@H]6CCCN6C(=O)[C@@H](NC(=O)OC)[C@@H](C)CC)nc5Br)cc(c2-4)OC3)[nH]1` [Compound 24, dimethyl ((2S,2′S,3S,3′S)-((2S,2′S)-((5,10-dihydrochromeno[5,4,3-cde]chromene-2,7-diyl)bis(4-bromo-1H-imidazole-5,2-diyl))bis(pyrrolidine-2,1-diyl))bis(3-methyl-1-oxopentane-1,2-diyl))dicarbamate], the negative-log EC50 (pEC50) (Zika virus, Huh-7, 48 h) is 8.66.

Take `CC[C@@H](C)[C@H](NC(=O)OC)C(=O)N1CC2(CC2)C[C@H]1c1nc(Cl)c(-c2cc3c4c(c2)OCc2cc(-c5[nH]c([C@@H]6CC7(CC7)CN6C(=O)[C@@H](NC(=O)OC)[C@H](C)CC)nc5C(C)C)cc(c2-4)OC3)[nH]1` [Compound 83, methyl ((2S,3R)-1-((S)-6-(5-(7-(4-chloro-2-((S)-5-((methoxycarbonyl)-L-alloisoleucyl)-5-azaspiro[2.4]heptan-6-yl)-1H-imidazol-5-yl)-5,10-dihydrochromeno[5,4,3-cde]chromen-2-yl)-4-isopropyl-1H-imidazol-2-yl)-5-azaspiro[2.4]heptan-5-yl)-3-methyl-1-oxopentan-2-yl)carbamate]: under “Zika virus, Huh-7, 48 h”, the pEC50 is 8.62.

In the case of `CC[C@H](C)[C@H](NC(=O)OC)C(=O)N1C[C@@H](C)C[C@H]1c1ncc(-c2cc3c4c(c2)OCc2cc(-c5[nH]c([C@@H]6C[C@H](C)CN6C(=O)[C@@H](NC(=O)OC)[C@@H](C)CC)nc5C(C)C)cc(c2-4)OC3)[nH]1` [Compound 70, methyl ((2S,3S)-1-((2S,4S)-2-(4-isopropyl-5-(7-(2-((2S,4S)-1-((methoxycarbonyl)-L-isoleucyl)-4-methylpyrrolidin-2-yl)-1H-imidazol-5-yl)-5,10-dihydrochromeno[5,4,3-cde]chromen-2-yl)-1H-imidazol-2-yl)-4-methylpyrrolidin-1-yl)-3-methyl-1-oxopentan-2-yl)carbamate], the pEC50 (Zika virus, Huh-7, 48 h) is 7.76. For the compound `CC[C@H](C)[C@H](NC(=O)OC)C(=O)N1CC2(CC2)C[C@@H]1c1nc(Cl)c(-c2cc3c4c(c2)OCc2cc(-c5[nH]c([C@H]6CC7(CC7)CN6C(=O)[C@@H](NC(=O)OC)[C@@H](C)CC)nc5C(C)C)cc(c2-4)OC3)[nH]1` [Compound 78, methyl ((2S,3S)-1-((R)-6-(5-(7-(4-chloro-2-((R)-5-((methoxycarbonyl)-L-isoleucyl)-5-azaspiro[2.4]heptan-6-yl)-1H-imidazol-5-yl)-5,10-dihydrochromeno[5,4,3-cde]chromen-2-yl)-4-isopropyl-1H-imidazol-2-yl)-5-azaspiro[2.4]heptan-5-yl)-3-methyl-1-oxopentan-2-yl)carbamate], the negative logarithm of the EC50 (pEC50) (Zika virus, Huh-7, 48 h) is < 6.00.
